Measured values published in patent US20060063736A1, “Compositions and methods for inhibiting mucin-type O-linked glycosylation” (priority 2004, published 2006).
Read-outs that look alike come from different tables or passages of the source.

Assays:
mppGalNAcT-11 = target: T1, mppGalNAcT-11 (Mus musculus, UniProt Q921L8); test: ELLA for ppGalNAcTs, mppGalNAcT-11; assay type: biochemical, murine; details: 20 μM UDP-GalNAc, 50 μM EA2 peptide 4
T1 construct: plasmids encoding truncated secreted ppGalNAcTs-1 to −5, -7, -10 and -11; made in house; host or cells: COS-7
T1 sequence (Q921L8 30-608 limits assumed): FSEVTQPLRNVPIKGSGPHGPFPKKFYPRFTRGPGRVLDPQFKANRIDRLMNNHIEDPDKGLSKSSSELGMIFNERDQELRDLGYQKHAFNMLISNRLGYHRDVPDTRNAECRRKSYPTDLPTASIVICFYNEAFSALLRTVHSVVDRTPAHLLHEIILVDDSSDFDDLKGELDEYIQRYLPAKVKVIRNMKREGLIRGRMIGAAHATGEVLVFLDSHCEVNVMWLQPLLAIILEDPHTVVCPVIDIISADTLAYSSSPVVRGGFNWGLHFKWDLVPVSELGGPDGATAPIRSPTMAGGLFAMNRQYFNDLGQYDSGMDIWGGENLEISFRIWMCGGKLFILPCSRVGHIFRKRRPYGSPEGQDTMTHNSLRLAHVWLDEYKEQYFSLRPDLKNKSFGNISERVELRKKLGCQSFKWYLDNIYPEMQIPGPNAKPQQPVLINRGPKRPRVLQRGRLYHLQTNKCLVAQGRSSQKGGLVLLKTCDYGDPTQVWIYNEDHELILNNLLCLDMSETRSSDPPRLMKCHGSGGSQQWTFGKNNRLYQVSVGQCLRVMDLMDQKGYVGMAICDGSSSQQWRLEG
Method: COS-7 cells were transiently transfected with plasmids encoding truncated secreted ppGalNAcTs-1 to −5, -7, -10 and -11 as previously described. Hagen et al. (1997) J. Biol. Chem. 272:13843-13848. The crude conditioned medium was used as the enzyme source.
Standard reaction conditions for ppGalNAcT assays were as follows. The reaction mixture contained the following components in a final volume of 25 μL: 10 mM MnCl2, 40 mM sodium cacodylate, 40 mM β-mercaptoethanol, 0.1% Triton X-100, pH 6.5, 5 μL of conditioned media, and various concentrations of EA2 peptide 4, UDP-GalNAc and inhibitor. All uridine-based compounds were dissolved in dimethyl sulfoxide (DMSO). […] Reaction rates were linear over the period monitored (20-30 min).
96-Well NeutrAvidin-coated plates were prewashed 3 times with 200 μL of wash buffer (25 mM Tris, 150 mM NaCl, 0.1% bovine serum albumin (BSA) (w/v), and 0.05% Tween (v/v), pH 7.2). […] After 3 washes with 200 μL of PBS, bound HPA-HRP was quantified by the addition of 100 μL of TMB peroxide solution. […] HRP activity was terminated by the addition of 50 μL of 2 N H2SO4 and the resulting solution was analyzed at 450 nm using a UV/Vis microtiter plate reader. The amount of product generated by the ppGalNAcT was extrapolated from absorbance values using an equation fit to the standard curve derived from Origin 6.1 software.

[1] = target: T2, α1-3galactosyltransferase (α1-3GalT) (Sus scrofa, UniProt P50127); test: Continuous assay for α1-3GalT activity; assay type: biochemical, porcine; details: for inhibitory activity against α1-3GalT: highest concentration tested (500 μM)
T2 construct: purchased Calbiochem
Method: The enzymatic reactions contained the following components in a final volume of 100 μL: 20 mM MnCl2, 100 mM sodium cacodylate, pH 6.5, 5 U of pyruvate kinase, 5 U of lactate dehydrogenase, 2 mM PEP, 0.2 mM NADH with 0.4 mU of β1-4GalT, 1 mM βOMeGlcNAc, 25 μM UDP-Gal or 1.0 mU of α1-3GalT, 1 mM LacNAc, 100 μM UDP-Gal and various concentrations of 1-68A or 2-68A in 2.5% DMSO. The reaction mixtures were incubated at 37° C. for 10 min before the reaction was initiated by the addition of UDP-Gal. The change in absorbance was monitored over 20 min at 340 nm.
To determine the selectivity of the compounds among the broader family of UDP-sugar utilizing enzymes, 1-68A and 2-68A were tested against bovine β1-4galactosyltransferase (β1-4GalT) and porcine α1-3galactosyltransferase (α1-3GalT), using a previously reported continuous colorimetric assay. Fitzgerald et al. (1970) Anal. Biochem. 36:43-61. Neither compound was active against β1-4GalT or α1-3GalT at the highest concentration tested (500 μM) (Entries 9 and 10, Table 1).

Jurkat cells = test: HPA staining of Jurkat cells (Tn-antigen), flow cytometry; assay type: cell-based, human; details: Homo sapiens, 48 h, read-out: EC50 of inhibition of HPA staining
Method: Jurkat cells were seeded at 250,000 cells/well (determined by Coulter cell counter) in 12-well polystyrene tissue culture plates in 1.0 mL of media and treated with various concentrations of 1-68A or 2-68A from 50 mM dimethyl sulfoxide (DMSO) stock solutions or doxorubicin or campothecin from 1 mM DMSO stock solutions. After 2 d, cells were harvested, washed twice with PBS buffer (PBS, pH 7.4, 0.1% FCS, 0.1% NaN3 w/v) and stained with FITC-HPA (1 μg/mL) or FITC-Con A (5 μg/mL with 1 mM CaCl2) in PBS, pH 7.4 in the dark for 1 h at 4° C. Cells were washed twice with PBS buffer, resuspended in 300 μL of PBS buffer and analyzed by flow cytometry (FacsCaliber, BD Instruments). Annexin-V staining was performed according to the manufacturer's protocols (Invitrogen).
To directly monitor ppGalNAcT activities in cells, Jurkat cells (human T-cell lymphoma), which are known to produce only the Tn-antigen (FIG. 1) as their O-linked glycans, were chosen. Piller et al. (1990) J. Biol. Chem. 265:9264-9271. Changes in Tn-antigen expression on the surface of Jurkat cells were monitored by HPA binding followed by flow cytometry analysis. Con A staining of N-linked glycans was used as a control for non-specific inhibition of protein glycosylation. Baenziger and Fiete (1979) J. Biol. Chem. 254:2400-2407.

T2 sequence (P50127 whole entry): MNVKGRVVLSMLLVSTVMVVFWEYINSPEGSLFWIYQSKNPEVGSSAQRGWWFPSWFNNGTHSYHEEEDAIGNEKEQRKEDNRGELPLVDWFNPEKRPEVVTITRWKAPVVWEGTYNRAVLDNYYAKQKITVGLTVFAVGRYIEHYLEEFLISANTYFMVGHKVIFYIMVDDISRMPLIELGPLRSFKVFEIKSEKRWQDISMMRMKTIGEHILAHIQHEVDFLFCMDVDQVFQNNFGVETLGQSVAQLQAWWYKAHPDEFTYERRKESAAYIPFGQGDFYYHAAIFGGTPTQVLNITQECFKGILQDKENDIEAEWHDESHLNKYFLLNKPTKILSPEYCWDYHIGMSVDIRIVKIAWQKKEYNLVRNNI

Compound	IC50 (mppGalNAcT-11)	IC50 [1]	inhibitory activity against α1-3GalT [1]	EC50 (Jurkat cells; Jurkat cells, 2 d treatment)	EC50 (Jurkat cells; Jurkat)
O=c1ccn([C@@H]2O[C@H](CON=Cc3ccc(O)c(O)c3O)[C@@H](O)[C@H]2O)c(=O)[nH]1 [1-68A]	39 ± 3 µM	> 500 µM	lack of inhibitory activity	~80 µM	
O=C(CON=Cc1ccc(O)c(O)c1O)NC[C@H]1O[C@@H](n2ccc(=O)[nH]c2=O)[C@H](O)[C@@H]1O [2-68A]	32 ± 3 µM	> 500 µM	lack of inhibitory activity		~80 µM
